Series [1] is described as follows: in vivo. The procedure:
(§1) Compounds: A stock solution of DMXAA, synthesised in the Auckland Cancer Society Research Centre, was prepared in phosphate-buffered saline, protected from light and stored frozen. Cisplatin (Sigma Chemical Co., St. Louis, Mo.) was dissolved in 0.9% saline. Stock solutions of carboplatin and 5-fluorouracil (Bristol Myers Squibb, Sermonita, Italy) and cyclophosphamide (Mead Johnson Oncology Products, Princeton, N.J.) were diluted with sterile water. […] All compounds were administered to mice by i.p. injection at 0.01 ml/g bodyweight.
(§2) Animals and Tumours: Murine mammary carcinoma MDAH-Mca-4 tumours were grown from stocks stored in liquid nitrogen at the sixth transplant generation. Tumours (eighth transplant generation when used) were grown from 20 μl of cell suspension (7 mg packed cells), inoculated i.m. (intramuscular) in the right gastrocnemius muscle of female C3H/HeN mice (22-25 g at the time of treatment). Mice were randomised to treatment which commenced when the tumour+leg diameter reached 10-11 mm (0.5-0.7 g tumour).
(§3) Host Toxicity and Antitumour Activity: Mice were treated with chemotherapeutic drugs at a range of doses, at 1.33-fold increments, up to the expected MTD (maximum tolerated dose, as estimated in pilot experiments or from the literature). Toxicity was assessed as lethality, and body weight loss measured four days after treatment. Any animals becoming moribund were terminated and treated as drug-related deaths in the analysis. The diameter of the tumour-bearing leg was measured 3 times per week after treatment. Antitumour activity was assessed from the tumour growth delay, defined as the difference in time to reach the endpoint of 13 mm (1.5 g tumour) for treated and control groups. Responses were classed as cures if animals were free of evident tumour 120 days after treatment. The statistical significance of tumour growth inhibition was tested by ANOVA using SAS for Windows, with Dunnett's test to evaluate p-values for differences between treatment groups. In experiments with substantial numbers of cures (free of tumour for >120 days after treatment), statistical significance was tested by Kruskal-Wallis non-parametric analysis of variance using SAS for Windows, and the difference between treatment and control groups by Dunn's test using Sigmastat v2.0. The gradient and standard error of dose-response curves was determined by linear regression using Sigmastat, and the DMF (Dose Modifying Factor) calculated as the gradient with DMXAA/gradient without DMXAA.

The subject of a further series is MDAH-Mca-4 tumours. Type of series: in vivo, C3H/HeN mice. Particulars: for DMF: Dose Modifying Factor = gradient with DMXAA (80 μmol/kg)/gradient without DMXAA; for single agent activity against MDAH-Mca-4 tumour: doses up to MTD; for Slope of dose/response: growth delay vs dose, linear regression; for growth delays at their MTDs: chemotherapy drug alone at MTD. The protocol:
as §1, §2, §3

Another series has as its system tumour blood flow. Particulars: Phase I clinical trials, well-tolerated doses; cited from earlier work.
Series [2] in a line: in vivo. Particulars: female, C3H/HeN, mouse, plasma, ip, 80 μmol/kg.
Method: (§4) Pharmacokinetics: Female C3H/HeN mice bearing MDAH-Mca-4 tumours (0.5-0.7 g) were injected i.p. with carboplatin (316 μmol/kg), DMXAA (80 μmol/kg), or simultaneously received carboplatin and DMXAA, at the same doses. […] Groups of 2-5 mice were used for each time point.
(§5) HPLC analysis of DMXAA: Concentrations of DMXAA in plasma were determined as follows. Aliquots of plasma (50 μl) were treated with 1 ml of ice-cold acetonitrile:methanol (3:1 v/v), centrifuged, and the resulting supernatants evaporated using a Speed-Vac solvent concentrator (Savant Instruments, NY). The residues were dissolved in 200 μl of 10 mM ammonium acetate buffer (pH 5) and 25 μl was analysed by HPLC using a HP1100 system with diode array detector (278 nm) and fluorescence detector. The column used was a 3.2 mm×150 mm C8 5 μm column (Alltima Associates Inc., Deerfield, Ill.) and a flow rate of 0.7 ml/min, with a mobile phase of 16% acetonitrile (v/v) in 10 mM ammonium acetate buffer (pH 5). The retention time for DMXAA was 7.3 min. […] The intra- and inter-assay precision and accuracy gave coefficients of variation <7%, and an average recovery of 70%. The lower sensitivity limit of detection by fluorescence (signal:noise ratio of 3) was 0.1 μM. […]
For series [3], the system named is PSN1 pancreatic tumour xenografts. Put plainly: PSN1 xenograft tumour volume tripling and doubling time. Particulars: i.v., DMXAA 20 mg/kg, gemcitabine 240 mg/kg, female MF1 nude mice; for PSN1 volume doubling times, Median: control 3.2; for PSN1 volume tripling times, Median: control 4.9.
Series [4] in a line: Pharmacokinetics of carboplatin (platinum by ICP-MS) and DMXAA (HPLC) in plasma and tumour. Particulars: plasma; DMXAA 80 μmol/kg i.p.; (% CV).
Method: as §4, §5
Setting [5] is: chemotherapy drug co-administered with DMXAA 80 μmol/kg, i.p.
[6] abbreviates: female, C3H/HeN, mouse, in vivo, ip, MTD.
Setting [7] is: chemotherapy drug alone, ± standard error of the slope.
Where [8] appears, read: co-administered with DMXAA 80 μmol/kg.
Setting [9] is: DMXAA alone at 80 μmol/kg, i.p.
Where [10] appears, read: female, C3H/HeN, mouse, in vivo, ip.
The mark [11] stands for this setting: chemotherapy drug alone, i.p., mice bearing MDAH-Mca-4 tumours.

Counter-ions that a name gives are not always drawn. Like-named read-outs stand apart in the source and are kept apart here. Marks after values point to notes of the source that are not given here. Where only a bound is given, the exact number is not on record here.

Take `COc1cc([C@@H]2c3cc4c(cc3[C@@H](O[C@@H]3O[C@@H]5CO[C@@H](C)O[C@H]5[C@H](O)[C@H]3O)[C@H]3COC(=O)[C@H]23)OCO4)cc(OC)c1O` [Etoposide, 4′-demethylepipodophyllotoxin-9-[4,6-0-(R)-ethylidene-(beta)-D-glucopyranoside]]: the “% body weight change at 4 days” value in the series “in vivo [1]” (chemotherapy drug alone, i.p.) was −2.0 ± 1.7%; in the series “in vivo [1]” (setting [5]), −6.5 ± 3.3%. In addition, in “in vivo [1]” (setting [6]), the MTD was at least 75 µmol/kg. For the same compound, in the series with MDAH-Mca-4 tumours, the DMF is 4.7 ± 2.9. Besides, in the series on MDAH-Mca-4 tumours (chemotherapy drug alone), the “single agent activity against MDAH-Mca-4 tumour” value (shortened to “single agent activity”) was “essentially inactive”. Further, the Slope of dose/response with MDAH-Mca-4 tumours (setting [7]) is 0.030 ± 0.010 days/µmol/kg; in the series with MDAH-Mca-4 tumours (setting [8]), 0.14 ± 0.04 days/µmol/kg.

By Km is commonly meant the substrate concentration at which the rate is half of its maximum. In the case of `Cc1ccc2c(=O)c3cccc(CC(=O)O)c3oc2c1C` [DMXAA, 5,6-dimethylxanthenone-4-acetic acid], in the series with MDAH-Mca-4 tumours (setting [9]), the “mean tumour growth delays (range)” value was 3.5 to 8.3 days and the “tumour growth delay, overall mean” value came to 6.6 ± 0.6 days. Also, the “tumour blood flow by dynamic MRI” value in the series with tumour blood flow is “significant reduction in tumour blood flow”. Also, in the series “in vivo [2]”, the Km came out at 220 µM. In series [3], the “PSN1 volume doubling times, Treated-Control” value was 0.4 days; the “PSN1 volume tripling times, Treated-Control” value worked out at 1.1 days; the “PSN1 volume doubling times, Median” value worked out at 3.6 days; the “PSN1 volume tripling times, Median” value is on record as 6.0 days. In addition, the Vmax in series [4] is listed as 63 (6.1) μm hr^−1.

In the case of `Nc1ccn([C@@H]2O[C@H](CO)[C@@H](O)C2(F)F)c(=O)n1` [gemcitabine, 2′-deoxy-2′,2′-difluorocytidine monohydrochloride (b-isomer)], in series [3], the “PSN1 volume doubling times, Treated-Control” value is recorded as 7.5 days; the “PSN1 volume tripling times, Treated-Control” value was 9.0 days; the “PSN1 volume doubling times, Median” value was 9.7 days; the “PSN1 volume tripling times, Median” value was determined as 13.9 days.

Turning to `COc1cccc2c1C(=O)c1c(O)c3c(c(O)c1C2=O)C[C@@](O)(C(=O)CO)C[C@@H]3O[C@H]1C[C@H](N)[C@H](O)[C@H](C)O1` [Doxorubicin, (8S,10S)-10-[(3-amino-2,3,6-trideoxy-a-L-lyxo-hexopyranosyl)oxy]-8-glycolyl-7,8,9,10-tetrahydro-6,8,11-trihydroxy-1-meth-oxy-5,12-naphthacenedione hydrochloride], the “% body weight change at 4 days” value in the series “in vivo [1]” (chemotherapy drug alone, i.p.) is reported as −3.9 ± 0.6%; in “in vivo [1]” (setting [5]), −5.5 ± 1.2%. Besides, the MTD was 17.8 µmol/kg in “in vivo [1]” (setting [10]) and 23.7 µmol/kg in “in vivo [1]” (setting [6]). In the series with MDAH-Mca-4 tumours, this compound displayed a DMF of 2.5 ± 1.1. In addition, the “growth delays at their MTDs” value with MDAH-Mca-4 tumours was around 10 days. Also, the Slope of dose/response in the series with MDAH-Mca-4 tumours (setting [7]) came to 0.42 ± 0.10 days/µmol/kg.

As to `O=c1[nH]cc(F)c(=O)[nH]1` [5-fluorouracil, 5-fluoro-2,4(1H,3H)-pyrimidinedione], the “% body weight change at 4 days” value in “in vivo [1]” (chemotherapy drug alone, i.p.) was −8.5 ± 0.8%; in “in vivo [1]” (setting [5]), −14.1 ± 1.5%. The same compound showed an MTD in the series “in vivo [1]” (setting [6]) of 1780 µmol/kg. This compound came in with a DMF in the series with MDAH-Mca-4 tumours of 0.5 ± 0.2. Moreover, in the series on MDAH-Mca-4 tumours, the “growth delays at their MTDs” value is recorded as around 10 days. Moreover, the Slope of dose/response in the series with MDAH-Mca-4 tumours (setting [7]) is 0.0051 ± 0.001^a days/μmol/kg; with MDAH-Mca-4 tumours (setting [8]) it was 0.0027 ± 0.001 days/µmol/kg.

Regarding `N.N.[Cl][Pt][Cl]` [Cisplatin], the “% body weight change at 4 days” value in the series “in vivo [1]” (chemotherapy drug alone, i.p.) is reported as −9.5 ± 1.4%; in “in vivo [1]” (setting [5]), −14.4 ± 2.3%. For the same compound, the MTD in the series “in vivo [1]” (setting [11]) and in “in vivo [1]” (setting [5]) was 42.1 µmol/kg each time. Besides, the DMF in the series with MDAH-Mca-4 tumours is on record as 1.8 ± 1.2. Besides, in the series with MDAH-Mca-4 tumours, the “growth delays at their MTDs” value is around 10 days. Besides, the Slope of dose/response in the series on MDAH-Mca-4 tumours (setting [7]) turned out to be 0.19 ± 0.06 days/µmol/kg; in the series on MDAH-Mca-4 tumours (setting [8]), 0.35 ± 0.12 days/µmol/kg.

Take `N.N.O=C([O-])C1(C(=O)[O-])CCC1.[Pt+2]` [Carboplatin, platinum, diammine [1,1-cyclobutanedicarboxylato(2-)-0,0′]-, (SP-4-2)]: the “% body weight change at 4 days” value is given as −5.6 ± 1.5% in the series “in vivo [1]” (chemotherapy drug alone, i.p.) and −8.5 ± 1.4% in “in vivo [1]” (setting [5]). In addition, the MTD in the series “in vivo [1]” (setting [11]) and in “in vivo [1]” (setting [5]) was 316 µmol/kg in each case. In the series on MDAH-Mca-4 tumours, this compound gave a DMF of 3.4 ± 2.3. The “single agent activity” value in the series with MDAH-Mca-4 tumours (chemotherapy drug alone) was “essentially inactive”. The values for the Slope of dose/response in the series with MDAH-Mca-4 tumours (setting [7]) and in the series on MDAH-Mca-4 tumours (setting [8]) were 0.0094 ± 0.0035 days/µmol/kg and 0.032 ± 0.010 days/µmol/kg, respectively.

As for `CC[C@]1(O)C[C@H]2CN(CCc3c([nH]c4ccccc34)[C@@](C(=O)OC)(c3cc4c(cc3OC)N(C=O)[C@H]3[C@@](O)(C(=O)OC)[C@H](OC(C)=O)[C@]5(CC)C=CCN6CC[C@]43[C@@H]65)C2)C1` [Vincristine], the “% body weight change at 4 days” value in “in vivo [1]” (chemotherapy drug alone, i.p.) is −7.0 ± 1.2%; in “in vivo [1]” (setting [5]), −10.0 ± 1.4%. Also, the MTD in “in vivo [1]” (female, C3H/HeN, mouse, in vivo, ip, MTD, chemotherapy drug alone, mice bearing MDAH-Mca-4 tumours) amounted to 1 µmol/kg; in the series “in vivo [1]” (female, C3H/HeN, mouse, in vivo, ip, MTD, chemotherapy drug co-administered with DMXAA 80 μmol/kg), 1 µmol/kg. For the same compound, the DMF in the series with MDAH-Mca-4 tumours is >7^c. Also, the “single agent activity” value in the series with MDAH-Mca-4 tumours (chemotherapy drug alone) is “essentially inactive”. The Slope of dose/response in the series on MDAH-Mca-4 tumours (setting [7]) is -0.0 ± 1.3 days/µmol/kg; with MDAH-Mca-4 tumours (setting [8]) it was 14.1 ± 5.4 days/µmol/kg.

`O=P1(N(CCCl)CCCl)NCCCO1` (centres unmarked) [Cyclophosphamide, 2-[bis(2-chloroethyl)amino]tetrahydro-2H-13,2-oxazaphosphorine-2-oxide monohydrate]: the “% body weight change at 4 days” value was −0.8 ± 1.3% in “in vivo [1]” (chemotherapy drug alone, i.p.) and −9.2 ± 1.4% in the series “in vivo [1]” (setting [5]). Besides, the MTD at 4 days in “in vivo [1]” (setting [10]) was at least 1340 µmol/kg. The DMF in the series with MDAH-Mca-4 tumours is 2.7 ± 0.3. In addition, the “growth delays at their MTDs” value in the series with MDAH-Mca-4 tumours is around 10 days. For the same compound, the results for the Slope of dose/response in the series on MDAH-Mca-4 tumours (setting [7]) and in the series on MDAH-Mca-4 tumours (setting [8]) were 0.0062 ± 0.0001 days/µmol/kg and 0.0167 ± 0.0013 days/µmol/kg, respectively.

The record behind these values is US7863321B2, “Anti-cancer combinations” (Cancer Research Technology Limited, priority 2001, dated 2011).
